Test results as given in patent US20260008818A1, “CYCLIC PEPTIDE OR SALT THEREOF, AND USES THEREOF” (FUJIFILM Corporation, priority 2023, published 2026).
Numbered stars: 1 amine (or outer) side, 2 acyl side, 3 side chain; on linkers, the order of the positions; unused ones are H or OH. Bridge positions count the residues as written; N and C are the ends. Ends that are not written are not given here. acetyl = K(acetyl): lysine side chain modified with a haloacetyl group whose halogen is replaced by the thiol of another residue, giving a thioether ring, O=C(C[*:1])[*:2]; COCH2 = acetyl group that carries the bridge

Test system: Recombinant Human FGFR1 alpha (IIIc) Fc Chimera Protein
Assay: Binding affinity of enzymatically synthesized cyclic peptide to FGFR by ELISA
Conditions: luminescence signal at reaction concentration 10 nmol/L, SEQ ID NO: 39 standardized to 1, enzyme synthesis product
How it was run: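 Graded A–D from luminescence at 10 nmol/L peptide, expressed relative to SEQ ID NO: 39 after subtracting wells lacking receptor. Read-out used anti-Myc antibody (2 h, RT) with chemiluminescent substrate, following 3 h RT binding of peptide to immobilized FGFR1α(IIIc)-Fc, 5 ng per well.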

Row | Substance | Evaluation result of binding affinity to FGFR
1 | 127 (HCSYWRLQFHGHEAPFRVK(COCH2)V; thioether 2-19 (inferred)) [compound 127] | A (0.7 or more)
2 | 196 (HCSYERLQFHGHEAPFWVK(COCH2)V; thioether 2-19 via Ac) [compound 196] | A (0.7 or more)
3 | 65 (HCSYERLQFHGHEAPFRAK(COCH2)V; thioether 2-19 (inferred)) [compound 65] | A (0.7 or more)
4 | 274 (QCYVQLYFWGHPAPFYWDK(COCH2)T; thioether 2-19 (inferred)) [compound 274] | C (0.1 or more and less than 0.5)
5 | 312 (HCVWERLIFLGHIAPFWVK(COCH2)R; thioether 2-19 (inferred)) [compound 312] | C (0.1 or more and less than 0.5)
6 | 285 (HCSYKRLQFHGHEAPFRVK(COCH2)V; thioether 2-19 (inferred)) [compound 285] | B (0.5 or more and less than 0.7)
7 | 87 (HCFYERLQFHGHEAPFRVKV; not fully specified; Description of Artificial Sequence: Cyclic peptide) [compound 87] | A (0.7 or more)
8 | 118 (HCSYERLQFHGHEAHFRVK(COCH2)V; thioether 2-19 (inferred)) [compound 118] | C (0.1 or more and less than 0.5)
9 | 276 (QCYVQLYVWGHPAPFYWDK(COCH2)S; thioether 2-19 (inferred)) [compound 276] | C (0.1 or more and less than 0.5)
10 | 294 (HCSYERLQFHGHEAPFRVK(COCH2)K; thioether 2-19 (inferred)) [compound 294] | A (0.7 or more)
11 | 168 (HCSYERLQFYGHEAPFRVK(COCH2)V; thioether 2-19 (inferred)) [compound 168] | A (0.7 or more)
12 | 133 (HCSYRRLQFHGHEAPFRVK(COCH2)V; thioether 2-19 (inferred)) [compound 133] | B (0.5 or more and less than 0.7)
13 | 56 (ACSYERLQFHGHEAPFRVK(COCH2)V; thioether 2-19 (inferred)) [compound 56] | A (0.7 or more)
14 | 89 (HCWYERLQFHGHEAPFRVKV; not fully specified; Description of Artificial Sequence: Cyclic peptide) [compound 89] | A (0.7 or more)
15 | 303 (HCSYERLQFMGHEAPFRVK(COCH2)V; thioether 2-19 (inferred)) [compound 303] | A (0.7 or more)
16 | 266 (PCSWVQLQYQGFTAPFLVK(COCH2)Y; thioether 2-19 (inferred)) [compound 266] | C (0.1 or more and less than 0.5)
17 | 109 (HCSYERLQFHSHEAPFRVK(COCH2)V; thioether 2-19 (inferred)) [compound 109] | C (0.1 or more and less than 0.5)
18 | 351 (WCWQAPFNIVVNRKVSVLIVK(COCH2)G; thioether 2-21) [compound 351] | C (0.1 or more and less than 0.5)
19 | 228 (RK(COCH2)TWERLIFLGHIAPFWVCR; thioether 2-19 (inferred)) [compound 228] | C (0.1 or more and less than 0.5)
20 | 287 (HCSYERLKFHGHEAPFRVK(COCH2)V; thioether 2-19 (inferred)) [compound 287] | A (0.7 or more)
21 | 52 (SCYERVVLFGWQAPYWAK(COCH2)P; thioether 2-18 (inferred)) [compound 52] | B (0.5 or more and less than 0.7)

Row | Substance | Evaluation result of binding affinity to FGFR
22 | 263 (ICRLSWFGFKAPFWIVDSK(COCH2)Q; thioether 2-19 (inferred)) [compound 263] | B (0.5 or more and less than 0.7)
23 | 91 (HCQYERLQFHGHEAPFRVK(COCH2)V; thioether 2-19 via acetyl; not fully specified; printed as H-(C)-QYERLQFHGHEAPFRV-(K(acetyl))-V) [compound 91] | A (0.7 or more)
24 | 137 (HCSYEILQFHGHEAPFRVK(COCH2)V; thioether 2-19 (inferred)) [compound 137] | A (0.7 or more)
25 | 254 (WCQLRFQGHLAPFIILK(COCH2)H; thioether 2-17 (inferred)) [compound 254] | C (0.1 or more and less than 0.5)
26 | 210 (HCSYERLQFHGHEAPFRVK(COCH2)G; thioether 2-19 via Ac; not fully specified) [compound 210] | B (0.5 or more and less than 0.7)
27 | 371 (CERLIFHGHEAPFWVK(COCH2)V; thioether 1-16) [compound 371] | A (0.7 or more)
28 | 302 (HCSYERLQMHGHEAPFRVK(COCH2)V; thioether 2-19 (inferred)) [compound 302] | B (0.5 or more and less than 0.7)
29 | 157 (HCSYERLHFHGHEAPFRVK(COCH2)V; thioether 2-19 (inferred)) [compound 157] | A (0.7 or more)
30 | 142 (HCSYERFQFHGHEAPFRVK(COCH2)V; thioether 2-19 (inferred)) [compound 142] | C (0.1 or more and less than 0.5)
31 | 283 (KCSYERLQFHGHEAPFRVK(COCH2)V; thioether 2-19 (inferred)) [compound 283] | B (0.5 or more and less than 0.7)
32 | 178 (HCSYERLQFHGHLAPFRVK(COCH2)V; thioether 2-19 (inferred)) [compound 178] | A (0.7 or more)
33 | 139 (HCSYEQLQFHGHEAPFRVK(COCH2)V; thioether 2-19 (inferred)) [compound 139] | B (0.5 or more and less than 0.7)
34 | 214 (HCSYERLQFHGHEAPFRVK(COCH2)F; thioether 2-19 via Ac; not fully specified) [compound 214] | B (0.5 or more and less than 0.7)
35 | 165 (HCSYERLQFIGHEAPFRVK(COCH2)V; thioether 2-19 (inferred)) [compound 165] | A (0.7 or more)
36 | 124 (HCSYVRLQFHGHEAPFRVK(COCH2)V; thioether 2-19 (inferred)) [compound 124] | B (0.5 or more and less than 0.7)
37 | 288 (HCSYERLQFKGHEAPFRVK(COCH2)V; thioether 2-19 (inferred)) [compound 288] | B (0.5 or more and less than 0.7)
38 | 131 (HCSYTRLQFHGHEAPFRVK(COCH2)V; thioether 2-19 (inferred)) [compound 131] | A (0.7 or more)
39 | 155 (HCSYERLEFHGHEAPFRVK(COCH2)V; thioether 2-19 (inferred)) [compound 155] | A (0.7 or more)
40 | 217 (HCSYERLQFHGHEAPFRVK(COCH2)Q; thioether 2-19 via Ac; not fully specified) [compound 217] | A (0.7 or more)
41 | 140 (HCSYETLQFHGHEAPFRVK(COCH2)V; thioether 2-19 (inferred)) [compound 140] | C (0.1 or more and less than 0.5)
